Consider 34 molecules from patent publication US11964967B2, “Cardiac sarcomere inhibitors” (Cytokinetics, Inc., priority 2018, dated 2024).

Molecules are shown by their SMILES.

The test concerns the target T1, bovine cardiac myofibrils (Bos taurus, UniProt Q9BE39).
T1 construct: full-length cardiac myosin in the context of the native sarcomere; from tissue; host or cells: bovine cardiac left ventricular tissue, homogenized with detergent (triton X-100)
In words: Skinned bovine cardiac myofibril ATPase assay (PK/LDH-coupled). In kind it is biochemical. As to conditions: inhibition of steady-state ATPase activity of bovine cardiac myofibrils, calcium at 75% activation (pCa75), PM12 buffer pH 6.8; for IC50: read-out: CDMF75 IC50. As to the method:
To evaluate the effect of compounds on the ATPase activity of full-length cardiac myosin in the context of the native sarcomere, skinned myofibril assays were performed. Bovine cardiac myofibrils were obtained by homogenizing bovine cardiac left ventricular tissue in the presence of a detergent such as triton X-100. Such treatment removes membranes and a majority of the soluble cytoplasmic proteins but leaves intact the cardiac sarcomeric acto-myosin apparatus. Myofibril preparations retain the ability to hydrolyze ATP in an Ca^2+ regulated manner ATPase activities of such myofibril preparations in the presence and absence of compounds were assayed at Ca^2+ concentrations activating to a defined fraction of the maximal rate (i.e., 25%, 75%). Small molecule agents were assessed for their ability to inhibit the steady-state ATPase activity of bovine cardiac myofibrils using pyruvate kinase and lactate dehydrogenase (PK/LDH)-coupled enzyme system. This assay regenerates myosin-produced ADP into ATP by oxidizing NADH, producing an absorbance change at 340 nm. Prior to testing small molecule agents, the bovine cardiac myofibrils were assessed for their calcium responsiveness and the calcium concentration that achieves either a 50% (pCa50) or 75% (pCa75) activation of the myofibril system was chosen as the final condition for assessing the inhibitory activity of the small molecule agents. All enzymatic activity was measured in a buffered solution containing 12 mM PIPES (piperazine-N,N′-bis(2-ethanesulfonic acid), 2 mM magnesium chloride at pH 6.8 (PM 12 buffer). Final assay conditions were 1 mg/mL of bovine cardiac myofibrils, 4 U/mL pyruvate kinase, 6 U/mL lactate dehydrogenase, 50 μM ATP, 0.1 mg/mL BSA (bovine serum albumin), 10 ppm antifoam, 1 mM DTT, 0.5 mM NADH, 1.5 mM PEP, 0.6 mM EGTA, and an amount of CaCl2) sufficient to achieve either 50% or 75% activation of the myofibril ATPase activity. Results for compounds tested are provided in Table A. Compounds tested were prepared in accordance with the synthetic procedures described herein.

T1 sequence (Q9BE39 whole entry): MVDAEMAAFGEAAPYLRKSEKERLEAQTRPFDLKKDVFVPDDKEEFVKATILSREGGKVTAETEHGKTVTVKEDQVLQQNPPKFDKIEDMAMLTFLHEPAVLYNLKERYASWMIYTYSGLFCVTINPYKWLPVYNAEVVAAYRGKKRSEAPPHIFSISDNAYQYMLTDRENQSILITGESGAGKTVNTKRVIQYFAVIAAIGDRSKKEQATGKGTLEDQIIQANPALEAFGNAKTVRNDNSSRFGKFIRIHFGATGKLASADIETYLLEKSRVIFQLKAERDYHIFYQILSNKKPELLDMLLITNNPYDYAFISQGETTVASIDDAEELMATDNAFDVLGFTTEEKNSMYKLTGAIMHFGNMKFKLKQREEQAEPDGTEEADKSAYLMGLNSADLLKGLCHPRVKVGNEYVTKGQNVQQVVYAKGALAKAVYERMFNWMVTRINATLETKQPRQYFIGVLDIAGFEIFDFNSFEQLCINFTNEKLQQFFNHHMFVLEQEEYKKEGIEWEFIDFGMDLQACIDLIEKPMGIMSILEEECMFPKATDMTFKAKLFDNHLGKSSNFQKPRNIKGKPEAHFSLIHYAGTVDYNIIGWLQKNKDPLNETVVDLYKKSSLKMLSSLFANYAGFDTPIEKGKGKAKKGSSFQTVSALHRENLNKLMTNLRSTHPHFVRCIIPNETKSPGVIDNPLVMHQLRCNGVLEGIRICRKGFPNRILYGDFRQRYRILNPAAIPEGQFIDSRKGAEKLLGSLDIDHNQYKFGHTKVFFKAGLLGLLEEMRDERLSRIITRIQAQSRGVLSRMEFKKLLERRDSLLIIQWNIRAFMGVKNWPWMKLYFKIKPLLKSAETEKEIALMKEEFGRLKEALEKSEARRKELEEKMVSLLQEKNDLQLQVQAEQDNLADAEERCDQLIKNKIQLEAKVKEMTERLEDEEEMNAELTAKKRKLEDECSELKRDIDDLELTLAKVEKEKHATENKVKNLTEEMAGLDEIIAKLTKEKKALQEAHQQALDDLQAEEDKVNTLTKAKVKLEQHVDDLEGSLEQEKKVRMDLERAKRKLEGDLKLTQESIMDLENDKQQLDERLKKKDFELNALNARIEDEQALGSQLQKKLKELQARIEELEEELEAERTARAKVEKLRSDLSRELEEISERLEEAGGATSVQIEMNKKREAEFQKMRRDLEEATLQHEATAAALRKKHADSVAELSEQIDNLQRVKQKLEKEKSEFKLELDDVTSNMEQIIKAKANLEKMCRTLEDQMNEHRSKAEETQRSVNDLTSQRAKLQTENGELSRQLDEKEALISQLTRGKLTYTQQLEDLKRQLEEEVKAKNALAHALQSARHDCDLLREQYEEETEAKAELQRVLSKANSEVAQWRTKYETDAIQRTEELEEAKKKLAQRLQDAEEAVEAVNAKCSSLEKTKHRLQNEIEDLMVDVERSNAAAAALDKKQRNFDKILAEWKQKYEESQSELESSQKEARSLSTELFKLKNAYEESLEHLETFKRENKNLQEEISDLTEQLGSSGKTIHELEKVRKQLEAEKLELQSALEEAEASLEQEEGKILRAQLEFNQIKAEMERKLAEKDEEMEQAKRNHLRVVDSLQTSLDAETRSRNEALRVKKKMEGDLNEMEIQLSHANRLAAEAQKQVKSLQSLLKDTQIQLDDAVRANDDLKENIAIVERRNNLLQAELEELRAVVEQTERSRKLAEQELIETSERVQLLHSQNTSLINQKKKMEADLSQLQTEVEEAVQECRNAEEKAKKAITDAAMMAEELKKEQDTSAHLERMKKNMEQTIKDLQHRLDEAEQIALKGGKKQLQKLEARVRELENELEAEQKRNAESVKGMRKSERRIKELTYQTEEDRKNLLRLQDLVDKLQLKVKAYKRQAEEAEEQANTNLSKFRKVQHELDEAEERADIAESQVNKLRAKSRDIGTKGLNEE
T1 sequence (P85100 whole entry partner): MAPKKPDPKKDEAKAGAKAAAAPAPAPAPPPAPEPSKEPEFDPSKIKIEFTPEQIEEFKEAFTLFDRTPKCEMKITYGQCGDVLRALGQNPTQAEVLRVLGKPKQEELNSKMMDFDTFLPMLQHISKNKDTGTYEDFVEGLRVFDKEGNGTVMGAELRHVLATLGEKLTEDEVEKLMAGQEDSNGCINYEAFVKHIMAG
T1 sequence (Q3SZE5 whole entry partner): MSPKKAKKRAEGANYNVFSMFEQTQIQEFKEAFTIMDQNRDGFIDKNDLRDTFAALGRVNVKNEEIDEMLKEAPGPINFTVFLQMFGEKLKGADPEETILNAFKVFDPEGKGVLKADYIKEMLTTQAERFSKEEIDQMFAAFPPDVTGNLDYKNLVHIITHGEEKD

Usually IC50 stands for the point on the concentration scale where inhibition reaches its midpoint. For `CCc1nc(-c2ccc3c(c2)CCC3C(=O)Nc2ccnc(C)c2)no1` (racemic) [Compound 2, 5-(5-ethyl-1,2,4-oxadiazol-3-yl)-N-(2-methylpyridin-4-yl)-2,3-dihydro-1H-indene-1-carboxamide], the “CDMF75 IC15” value amounted to 1.6 µM and the IC50 is 5.5 µM.

Consider `CCc1nc(-c2ccc3c(c2)CCC3C(=O)Nc2ccnn2C)no1` (racemic) [Compound 5, 5-(5-ethyl-1,2,4-oxadiazol-3-yl)-N-(1-methyl-1H-pyrazol-5-yl)-2,3-dihydro-1H-indene-1-carboxamide], for which the “CDMF75 IC15” value was more than 39.2 µM and the 50% inhibitory concentration (IC50) is more than 39.2 µM.

Regarding `CCc1nc(-c2ccc3c(c2)CCC3C(=O)Nc2ccccc2)no1` (racemic) [Compound 8, 5-(5-ethyl-1,2,4-oxadiazol-3-yl)-N-phenyl-2,3-dihydro-1H-indene-1-carboxamide], the “CDMF75 IC15” value worked out at 1.3 µM and the IC50 came out at 6.1 µM.

As to `CCNC(=O)C1CCc2cc(-c3noc(CC)n3)ccc21` (racemic) [Compound 11, N-ethyl-5-(5-ethyl-1,2,4-oxadiazol-3-yl)-2,3-dihydro-1H-indene-1-carboxamide], the “CDMF75 IC15” value is more than 39.2 µM and the IC50 was more than 39.2 µM.

Take `Cc1cc(NC(=O)C2CCc3cc(-c4noc(C(F)F)n4)ccc32)ccn1` (racemic) [Compound 14, 5-(5-(difluoromethyl)-1,2,4-oxadiazol-3-yl)-N-(2-methylpyridin-4-yl)-2,3-dihydro-1H-indene-1-carboxamide]: the “CDMF75 IC15” value was 4.4 µM and the IC50 was found to be 23.1 µM.

As to `Cc1cc(NC(=O)C2CCc3cc(-c4noc(C)n4)ccc32)ccn1` (racemic) [Compound 17, 5-(5-methyl-1,2,4-oxadiazol-3-yl)-N-(2-methylpyridin-4-yl)-2,3-dihydro-1H-indene-1-carboxamide], the “CDMF75 IC15” value turned out to be 6.0 µM and the IC50 was 33.4 µM.

On to `Cc1cc(NC(=O)C2CCc3cc(-c4noc(C5CC5)n4)ccc32)ccn1` (racemic) [Compound 20, 5-(5-cyclopropyl-1,2,4-oxadiazol-3-yl)-N-(2-methylpyridin-4-yl)-2,3-dihydro-1H-indene-1-carboxamide], for which the “CDMF75 IC15” value is 2.6 µM and the half-maximal inhibitory concentration (IC50) was determined as 13.9 µM.

For `Cc1cc(NC(=O)C2CCc3cc(-c4noc(C(C)C)n4)ccc32)ccn1` (racemic) [Compound 23, 5-(5-isopropyl-1,2,4-oxadiazol-3-yl)-N-(2-methylpyridin-4-yl)-2,3-dihydro-1H-indene-1-carboxamide], the “CDMF75 IC15” value worked out at 5.6 µM and the IC50 was found to be 29 µM.

In the case of `CCc1nc(-c2ccc3c(c2)CCC32COC(=O)N2)no1` (racemic) [Compound 26, 5-(5-ethyl-1,2,4-oxadiazol-3-yl)-2,3-dihydrospiro[indene-1,4′-oxazolidin]-2′-one], the “CDMF75 IC15” value came to 0.8 µM and the half-inhibitory concentration (IC50) was found to be 3 µM.

`Cc1nc(-c2ccc3c(c2)CCC32COC(=O)N2)no1` (racemic) [Compound 29, 5-(5-methyl-1,2,4-oxadiazol-3-yl)-2,3-dihydrospiro[indene-1,4′-oxazolidin]-2′-one]: the “CDMF75 IC15” value amounted to 4.2 µM and the IC50 was 18.4 µM.

As to `CC(C)c1nc(-c2ccc3c(c2)CCC32COC(=O)N2)no1` (racemic) [Compound 32, 5-(5-isopropyl-1,2,4-oxadiazol-3-yl)-2,3-dihydrospiro[indene-1,4′-oxazolidin]-2′-one], the “CDMF75 IC15” value is 2.7 µM and the IC50 was found to be 11.4 µM.

With `O=C1NC2(CCc3cc(-c4noc(C5CC5)n4)ccc32)CO1` (racemic) [Compound 35, 5-(5-cyclopropyl-1,2,4-oxadiazol-3-yl)-2,3-dihydrospiro[indene-1,4′-oxazolidin]-2′-one], the “CDMF75 IC15” value stood at 1.5 µM and the half-inhibitory concentration (IC50) came to 5.8 µM.

Take `O=C1NC2(CCc3cc(-c4noc(C(F)F)n4)ccc32)CO1` (racemic) [Compound 38, 5-(5-(difluoromethyl)-1,2,4-oxadiazol-3-yl)-2,3-dihydrospiro[indene-1,4′-oxazolidin]-2′-one]: the “CDMF75 IC15” value stood at 2.5 µM and the IC50 amounted to 14.1 µM.

`CCc1nc(-c2ccc3c(c2)OCC32COC(=O)N2)no1` (racemic) [Compound 41, 6-(5-ethyl-1,2,4-oxadiazol-3-yl)-2H-spiro[benzofuran-3,4′-oxazolidin]-2′-one]: the “CDMF75 IC15” value is 0.6 µM and the concentration for half-maximal inhibition (IC50) was found to be 2.2 µM.

As for `CCc1nc(-c2ccc3c(c2)CCC3C(=O)Nc2ccnc(C)c2)no1` (single isomer, unassigned) [Compound 2A], the “CDMF75 IC15” value turned out to be 0.7 µM and the concentration for half-maximal inhibition (IC50) came to 3 µM.

`CCc1nc(-c2ccc3c(c2)CCC3C(=O)Nc2ccnc(C)c2)no1` (single isomer, unassigned) [Compound 2B]: the “CDMF75 IC15” value came to 17.5 µM and the IC50 is more than 39.2 µM.

With `CCc1nc(-c2ccc3c(c2)CCC3C(=O)Nc2ccnn2C)no1` (single isomer, unassigned) [Compound 5A], the “CDMF75 IC15” value was more than 39.2 µM and the half-inhibitory concentration (IC50) is more than 39.2 µM.

Turning to `CCc1nc(-c2ccc3c(c2)CCC3C(=O)Nc2ccnn2C)no1` (single isomer, unassigned) [Compound 5B], the concentration for half-maximal inhibition (IC50) was more than 39.2 µM.

For `CCc1nc(-c2ccc3c(c2)CCC3C(=O)Nc2ccccc2)no1` (single isomer, unassigned) [Compound 8A], the “CDMF75 IC15” value was 0.7 µM and the IC50 was 2.8 µM.

As to `CCc1nc(-c2ccc3c(c2)CCC3C(=O)Nc2ccccc2)no1` (single isomer, unassigned) [Compound 8B], the “CDMF75 IC15” value is more than 39.2 µM and the IC50 was more than 39.2 µM.

For `CCNC(=O)C1CCc2cc(-c3noc(CC)n3)ccc21` (single isomer, unassigned) [Compound 11A], the “CDMF75 IC15” value was more than 39.2 µM and the concentration for half-maximal inhibition (IC50) was more than 39.2 µM.

As for `CCNC(=O)C1CCc2cc(-c3noc(CC)n3)ccc21` (single isomer, unassigned) [Compound 11B], the “CDMF75 IC15” value turned out to be 26.3 µM and the IC50 is more than 39.2 µM.

For the molecule `Cc1cc(NC(=O)C2CCc3cc(-c4noc(C(F)F)n4)ccc32)ccn1` (single isomer, unassigned) [Compound 14A], the “CDMF75 IC15” value was determined as 2.2 µM and the IC50 worked out at 11 µM.

As to `Cc1cc(NC(=O)C2CCc3cc(-c4noc(C(F)F)n4)ccc32)ccn1` (single isomer, unassigned) [Compound 14B], the “CDMF75 IC15” value was more than 39.2 µM and the half-inhibitory concentration (IC50) is more than 39.2 µM.

`Cc1cc(NC(=O)C2CCc3cc(-c4noc(C)n4)ccc32)ccn1` (single isomer, unassigned) [Compound 17A]: the “CDMF75 IC15” value turned out to be 2.9 µM and the IC50 was 13.6 µM.

`Cc1cc(NC(=O)C2CCc3cc(-c4noc(C)n4)ccc32)ccn1` (single isomer, unassigned) [Compound 17B]: the “CDMF75 IC15” value was more than 39.2 µM and the IC50 is more than 39.2 µM.

With `Cc1cc(NC(=O)C2CCc3cc(-c4noc(C5CC5)n4)ccc32)ccn1` (single isomer, unassigned) [Compound 20A], the “CDMF75 IC15” value was determined as 1.2 µM and the half-maximal inhibitory concentration (IC50) is 5.6 µM.

Take `Cc1cc(NC(=O)C2CCc3cc(-c4noc(C5CC5)n4)ccc32)ccn1` (single isomer, unassigned) [Compound 20B]: the “CDMF75 IC15” value worked out at 33.2 µM and the half-inhibitory concentration (IC50) was more than 39.2 µM.

For `Cc1cc(NC(=O)C2CCc3cc(-c4noc(C(C)C)n4)ccc32)ccn1` (single isomer, unassigned) [Compound 23A], the “CDMF75 IC15” value was 3.6 µM and the IC50 is 14.6 µM.

On to `Cc1cc(NC(=O)C2CCc3cc(-c4noc(C(C)C)n4)ccc32)ccn1` (single isomer, unassigned) [Compound 23B], for which the “CDMF75 IC15” value is more than 39.2 µM and the concentration for half-maximal inhibition (IC50) was more than 39.2 µM.

As to `CCc1nc(-c2ccc3c(c2)CCC32COC(=O)N2)no1` (single isomer, unassigned) [Compound 26A], the “CDMF75 IC15” value is 31.0 µM and the IC50 was more than 39.2 µM.

Consider `CCc1nc(-c2ccc3c(c2)CCC32COC(=O)N2)no1` (single isomer, unassigned) [Compound 26B], for which the “CDMF75 IC15” value turned out to be 0.3 µM and the IC50 worked out at 1.6 µM.

In the case of `Cc1nc(-c2ccc3c(c2)CCC32COC(=O)N2)no1` (single isomer, unassigned) [Compound 29A], the “CDMF75 IC15” value was more than 39.2 µM and the IC50 was more than 39.2 µM.

`Cc1nc(-c2ccc3c(c2)CCC32COC(=O)N2)no1` (single isomer, unassigned) [Compound 29B]: the “CDMF75 IC15” value amounted to 2.1 µM and the concentration for half-maximal inhibition (IC50) stood at 9.1 µM.
